Laboratory results from patent US8952024B2, “Herbicidal pyrimidone derivatives” (E I du Pont de Nemours and Company, priority 2009, dated 2015).

Tests used:
Type in all cases: in vivo
[1] = test system: morningglory (Ipomoea spp.); test: Test A pre-/postemergence plant response
Excerpt: (§1) Seeds of barnyardgrass (Echinochloa crus-galli), large crabgrass (Digitaria sanguinalis), giant foxtail (Setaria faberii), morningglory (Ipomoea spp.), pigweed (Amaranthus retroflexus), velvetleaf (Abutilon theophrasti), wheat (Triticum aestivum) and corn (Zea mays) were planted into a blend of loam soil and sand and treated preemergence with a directed soil spray using test chemicals formulated in a non-phytotoxic solvent mixture which included a surfactant. At the same time these species were also treated with postemergence applications of test compounds formulated in the same manner.
(§2) Plants ranged in height from two to ten cm and were in the one- to two-leaf stage for the postemergence treatment. Treated plants and untreated controls were maintained in a greenhouse for approximately ten days, after which time all treated plants were compared to untreated controls and visually evaluated for injury. Plant response ratings, summarized in Table A, are based on a 0 to 100 scale where 0 is no effect and 100 is complete control. A dash (-) response means no test result.

[2] = test system: wheat (Triticum aestivum); test: Test A pre-/postemergence plant response
Excerpt: as §1, §2

[3] = test system: velvetleaf (Abutilon theophrasti); test: Test A pre-/postemergence plant response
Excerpt: as §1, §2

[4] = test system: barnyardgrass (Echinochloa crus-galli); test: Test A pre-/postemergence plant response
Excerpt: as §1, §2

[5] = test system: large crabgrass (Digitaria sanguinalis); test: Test A pre-/postemergence plant response
Excerpt: as §1, §2

corn (Zea mays) = test: Test A pre-/postemergence plant response
Excerpt: as §1, §2

[6] = test system: giant foxtail (Setaria faberii); test: Test A pre-/postemergence plant response
Excerpt: as §1, §2

[7] = test system: pigweed (Amaranthus retroflexus); test: Test A pre-/postemergence plant response
Excerpt: as §1, §2

[8] = test system: umbrella sedge (Cyperus difformis); test: Test B flooded paddy test; conditions: for Plant response rating, Flood, Sedge, Umbrella: 250 g ai/ha, flooded paddy test, visual rating on 0 to 100 scale (0 no effect, 100 complete control) after 13 to 15 days; for Plant response rating, Sedge, Umbrella: Flood (flooded paddy test), 13 to 15 days; for Sedge, Umbrella plant response rating: Flood, 31 g ai/ha, scale 0 to 100 (0 no effect, 100 complete control)
Outline: (§3)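 Flooded-pot test: water raised to 3 cm above soil when treating, compound put in the water, level unchanged thereafter. Plants were at 2 leaves. Readout after 13 to 15 days, visual, relative to controls; 0 signifies no effect and 100 complete control.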

[9] = test system: ducksalad (Heteranthera limosa); test: Test B flooded paddy test; conditions: for Plant response rating, Flood, Ducksalad: 250 g ai/ha, flooded paddy test, visual rating on 0 to 100 scale (0 no effect, 100 complete control) after 13 to 15 days; for Plant response rating, Ducksalad: Flood (flooded paddy test), 13 to 15 days; for Ducksalad plant response rating: Flood, 31 g ai/ha, scale 0 to 100 (0 no effect, 100 complete control)
Outline: as §3

rice (Oryza sativa) = test: Test B flooded paddy test; conditions: for Plant response rating, Flood, Rice: 250 g ai/ha, flooded paddy test, visual rating on 0 to 100 scale (0 no effect, 100 complete control) after 13 to 15 days; for Plant response rating, Rice: Flood (flooded paddy test), 13 to 15 days; for Rice plant response rating: Flood, 31 g ai/ha, scale 0 to 100 (0 no effect, 100 complete control)
Outline: as §3

[10] = test system: barnyardgrass (Echinochloa crus-galli); test: Test B flooded paddy test; conditions: for Plant response rating, Flood, Barnyardgrass: 250 g ai/ha, flooded paddy test, visual rating on 0 to 100 scale (0 no effect, 100 complete control) after 13 to 15 days; for Plant response rating, Barnyardgrass: Flood (flooded paddy test), 13 to 15 days; for Barnyardgrass plant response rating: Flood, 31 g ai/ha, scale 0 to 100 (0 no effect, 100 complete control)
Outline: as §3

[11] = Postemergence, 125 g ai/ha, 0 to 100 scale where 0 is no effect and 100 is complete control
[12] = Postemergence, 500 g ai/ha, 0 to 100 scale, 0 = no effect, 100 = complete control, approx. ten days
[13] = Preemergence, 125 g ai/ha, 0 to 100 scale, 0 = no effect, 100 = complete control
[14] = Preemergence, 500 g ai/ha, visual injury, 0 to 100 scale (0 no effect, 100 complete control), approx. ten days
[15] = 62 g ai/ha, scale of 0 to 100 where 0 is no effect and 100 is complete control
[16] = 125 g ai/ha, scale 0 to 100, 0 is no effect, 100 is complete control

O=C1CCCC(O)=C1C(=O)c1cnc(-c2ccco2)n(-c2ccccc2)c1=O [Compound 76]
10: Plant response rating, Wheat [2, 12]
20: Plant response rating, Wheat [2, 14] | Plant response rating, Velvetleaf [3, 13] | Plant response rating, Corn (corn (Zea mays); [12])
30: Plant response rating, Barnyardgrass [4, 14] | Plant response rating, Foxtail, Giant [6, 14]
50: Plant response rating, Morningglory [1, 14] | Plant response rating, Barnyardgrass [4, 11] | Plant response rating, Crabgrass, Large [5, 13] | Plant response rating, Pigweed [7, 13]
100: Plant response rating, Velvetleaf [3, 11] | Plant response rating, Velvetleaf [3, 12] | Plant response rating, Crabgrass, Large [5, 14] | Plant response rating, Pigweed [7, 12] | Plant response rating, Pigweed [7, 14]
80: Plant response rating, Barnyardgrass [4, 12]
70: Plant response rating, Velvetleaf [3, 14] | Plant response rating, Crabgrass, Large [5, 11] | Plant response rating, Foxtail, Giant [6, 12]
90: Plant response rating, Morningglory [1, 11] | Plant response rating, Morningglory [1, 12] | Plant response rating, Crabgrass, Large [5, 12] | Plant response rating, Pigweed [7, 11]
40: Plant response rating, Foxtail, Giant [6, 11]
0: Plant response rating, Morningglory [1, 13] | Plant response rating, Wheat [2, 11] | Plant response rating, Wheat [2, 13] | Plant response rating, Barnyardgrass [4, 13] | Plant response rating, Corn (corn (Zea mays); [11]) | Plant response rating, Corn (corn (Zea mays); [13]) | Plant response rating, Corn (corn (Zea mays); [14]) | Plant response rating, Foxtail, Giant [6, 13] | Plant response rating, Flood, Sedge, Umbrella [8] | Plant response rating, Sedge, Umbrella [8, 15] | Plant response rating, Sedge, Umbrella [8, 16] | Sedge, Umbrella plant response rating [8] | Plant response rating, Flood, Ducksalad [9] | Plant response rating, Ducksalad [9, 15] | Plant response rating, Ducksalad [9, 16] | Ducksalad plant response rating [9] | Plant response rating, Flood, Rice (rice (Oryza sativa)) | Plant response rating, Rice (rice (Oryza sativa); [15]) | Plant response rating, Rice (rice (Oryza sativa); [16]) | Rice plant response rating (rice (Oryza sativa)) | Plant response rating, Flood, Barnyardgrass [10] | Plant response rating, Barnyardgrass [10, 15] | Plant response rating, Barnyardgrass [10, 16] | Barnyardgrass plant response rating [10]

CCCCCc1ncc(C(=O)C2=C(O)CCCC2=O)c(=O)n1-c1ccccc1 [Compound 78]
40: Plant response rating, Flood, Sedge, Umbrella [8]
30: Plant response rating, Barnyardgrass [4, 14] | Plant response rating, Crabgrass, Large [5, 11] | Plant response rating, Sedge, Umbrella [8, 15]
10: Plant response rating, Crabgrass, Large [5, 13] | Plant response rating, Foxtail, Giant [6, 14]
100: Plant response rating, Morningglory [1, 12] | Plant response rating, Velvetleaf [3, 11] | Plant response rating, Velvetleaf [3, 12] | Plant response rating, Pigweed [7, 11] | Plant response rating, Pigweed [7, 12] | Plant response rating, Pigweed [7, 14]
50: Plant response rating, Velvetleaf [3, 14] | Plant response rating, Barnyardgrass [4, 11] | Plant response rating, Crabgrass, Large [5, 14] | Plant response rating, Foxtail, Giant [6, 12] | Plant response rating, Pigweed [7, 13]
70: Plant response rating, Morningglory [1, 11] | Plant response rating, Barnyardgrass [4, 12] | Plant response rating, Crabgrass, Large [5, 12]
0: Plant response rating, Morningglory [1, 13] | Plant response rating, Morningglory [1, 14] | Plant response rating, Wheat [2, 11] | Plant response rating, Wheat [2, 12] | Plant response rating, Wheat [2, 13] | Plant response rating, Wheat [2, 14] | Plant response rating, Barnyardgrass [4, 13] | Plant response rating, Corn (corn (Zea mays); [11]) | Plant response rating, Corn (corn (Zea mays); [13]) | Plant response rating, Corn (corn (Zea mays); [14]) | Plant response rating, Foxtail, Giant [6, 13] | Plant response rating, Ducksalad [9, 15] | Plant response rating, Rice (rice (Oryza sativa); [15]) | Plant response rating, Flood, Barnyardgrass [10] | Plant response rating, Barnyardgrass [10, 15]
20: Plant response rating, Velvetleaf [3, 13] | Plant response rating, Corn (corn (Zea mays); [12]) | Plant response rating, Foxtail, Giant [6, 11] | Plant response rating, Flood, Ducksalad [9] | Plant response rating, Flood, Rice (rice (Oryza sativa))

CCCc1ncc(C(=O)C2=C(O)CCCC2=O)c(=O)n1Cc1ccc(OC)c(OC)c1 [Compound 84]
70: Plant response rating, Velvetleaf [3, 11]
20: Plant response rating, Corn (corn (Zea mays); [12]) | Plant response rating, Flood, Ducksalad [9]
50: Plant response rating, Flood, Sedge, Umbrella [8]
0: Plant response rating, Morningglory [1, 13] | Plant response rating, Wheat [2, 11] | Plant response rating, Wheat [2, 12] | Plant response rating, Wheat [2, 13] | Plant response rating, Wheat [2, 14] | Plant response rating, Velvetleaf [3, 13] | Plant response rating, Barnyardgrass [4, 11] | Plant response rating, Barnyardgrass [4, 13] | Plant response rating, Barnyardgrass [4, 14] | Plant response rating, Crabgrass, Large [5, 11] | Plant response rating, Crabgrass, Large [5, 13] | Plant response rating, Crabgrass, Large [5, 14] | Plant response rating, Corn (corn (Zea mays); [11]) | Plant response rating, Corn (corn (Zea mays); [13]) | Plant response rating, Corn (corn (Zea mays); [14]) | Plant response rating, Foxtail, Giant [6, 11] | Plant response rating, Foxtail, Giant [6, 12] | Plant response rating, Foxtail, Giant [6, 13] | Plant response rating, Foxtail, Giant [6, 14] | Plant response rating, Sedge, Umbrella [8, 15] | Sedge, Umbrella plant response rating [8] | Plant response rating, Ducksalad [9, 15] | Plant response rating, Ducksalad [9, 16] | Ducksalad plant response rating [9] | Plant response rating, Flood, Rice (rice (Oryza sativa)) | Plant response rating, Rice (rice (Oryza sativa); [15]) | Plant response rating, Rice (rice (Oryza sativa); [16]) | Rice plant response rating (rice (Oryza sativa)) | Plant response rating, Flood, Barnyardgrass [10] | Plant response rating, Barnyardgrass [10, 15] | Plant response rating, Barnyardgrass [10, 16] | Barnyardgrass plant response rating [10]
30: Plant response rating, Sedge, Umbrella [8, 16]
10: Plant response rating, Morningglory [1, 14] | Plant response rating, Barnyardgrass [4, 12] | Plant response rating, Crabgrass, Large [5, 12]
40: Plant response rating, Velvetleaf [3, 14]
90: Plant response rating, Morningglory [1, 11] | Plant response rating, Morningglory [1, 12] | Plant response rating, Pigweed [7, 13]
100: Plant response rating, Velvetleaf [3, 12] | Plant response rating, Pigweed [7, 11] | Plant response rating, Pigweed [7, 12] | Plant response rating, Pigweed [7, 14]
